Test results taken from patent publication US20260262643A1, “HERBICIDAL BENZOXAZINES” (FMC CORPORATION, priority 2022, published 2026).

Tests used:
barnyardgrass [1] = assay: Test C preemergence; assay type: in vivo, Echinochloa crusgalli; conditions: preemergence, 0 to 100 scale (0 no effect, 100 complete control)
Method in brief: (§1)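 Seeds in loam–sand blend received preemergence directed soil spray of test chemicals in non-phytotoxic solvent with surfactant; postemergence treatment was applied at one- to two-leaf stage (2–10 cm). After 10 days in greenhouse, injury rated visually versus untreated controls, 0 (no effect) to 100 (complete control).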

blackgrass [2] = assay: Test C preemergence; assay type: in vivo, Alopecurus myosuroides; conditions: preemergence, 0 to 100 scale (0 no effect, 100 complete control)
Method in brief: as §1

corn [3] = assay: Test C preemergence; assay type: in vivo, Zea mays; conditions: preemergence, 0 to 100 scale (0 no effect, 100 complete control)
Method in brief: as §1

green foxtail [4] = assay: Test C preemergence; assay type: in vivo, Setaria viridis; conditions: preemergence, 0 to 100 scale (0 no effect, 100 complete control)
Method in brief: as §1

kochia [5] = assay: Test C preemergence; assay type: in vivo, Bassia scoparia; conditions: preemergence, 0 to 100 scale (0 no effect, 100 complete control)
Method in brief: as §1

oat, wild [6] = assay: Test C preemergence; assay type: in vivo, Avena fatua; conditions: preemergence, 0 to 100 scale (0 no effect, 100 complete control)
Method in brief: as §1

pigweed, palmer [7] = assay: Test C preemergence; assay type: in vivo, Amaranthus palmeri; conditions: preemergence, 0 to 100 scale (0 no effect, 100 complete control)
Method in brief: as §1

ragweed [8] = assay: Test C preemergence; assay type: in vivo, Ambrosia artemisiifolia; conditions: preemergence, 0 to 100 scale (0 no effect, 100 complete control)
Method in brief: as §1

ryegrass, Italian [9] = assay: Test C preemergence; assay type: in vivo, Lolium multiflorum; conditions: preemergence, 0 to 100 scale (0 no effect, 100 complete control)
Method in brief: as §1

soybean [10] = assay: Test C preemergence; assay type: in vivo, Glycine max; conditions: preemergence, 0 to 100 scale (0 no effect, 100 complete control)
Method in brief: as §1

wheat [11] = assay: Test C preemergence; assay type: in vivo, Triticum aestivum; conditions: preemergence, 0 to 100 scale (0 no effect, 100 complete control)
Method in brief: as §1

barnyardgrass [12] = assay: Test C postemergence; assay type: in vivo, Echinochloa crusgalli; conditions: 10 days, 0 to 100 scale (0 no effect, 100 complete control)
Method in brief: as §1

blackgrass [13] = assay: Test C postemergence; assay type: in vivo, Alopecurus myosuroides; conditions: 10 days, 0 to 100 scale (0 no effect, 100 complete control)
Method in brief: as §1

corn [14] = assay: Test C postemergence; assay type: in vivo, Zea mays; conditions: 10 days, 0 to 100 scale (0 no effect, 100 complete control)
Method in brief: as §1

green foxtail [15] = assay: Test C postemergence; assay type: in vivo, Setaria viridis; conditions: 10 days, 0 to 100 scale (0 no effect, 100 complete control)
Method in brief: as §1

kochia [16] = assay: Test C postemergence; assay type: in vivo, Bassia scoparia; conditions: 10 days, 0 to 100 scale (0 no effect, 100 complete control)
Method in brief: as §1

oat, wild [17] = assay: Test C postemergence; assay type: in vivo, Avena fatua; conditions: 10 days, 0 to 100 scale (0 no effect, 100 complete control)
Method in brief: as §1

pigweed, palmer [18] = assay: Test C postemergence; assay type: in vivo, Amaranthus palmeri; conditions: 10 days, 0 to 100 scale (0 no effect, 100 complete control)
Method in brief: as §1

ragweed [19] = assay: Test C postemergence; assay type: in vivo, Ambrosia artemisiifolia; conditions: 10 days, 0 to 100 scale (0 no effect, 100 complete control)
Method in brief: as §1

ryegrass, Italian [20] = assay: Test C postemergence; assay type: in vivo, Lolium multiflorum; conditions: 10 days, 0 to 100 scale (0 no effect, 100 complete control)
Method in brief: as §1

soybean [21] = assay: Test C postemergence; assay type: in vivo, Glycine max; conditions: 10 days, 0 to 100 scale (0 no effect, 100 complete control)
Method in brief: as §1

wheat [22] = assay: Test C postemergence; assay type: in vivo, Triticum aestivum; conditions: 10 days, 0 to 100 scale (0 no effect, 100 complete control)
Method in brief: as §1

galium = assay: Test C postemergence; assay type: in vivo, Galium aparine; conditions: 10 days, 0 to 100 scale (0 no effect, 100 complete control)
Method in brief: as §1

horseweed = assay: Test C postemergence; assay type: in vivo, Erigeron canadensis; conditions: 10 days, 0 to 100 scale (0 no effect, 100 complete control)
Method in brief: as §1

barnyardgrass [23] = assay: Test D flooded paddy test; assay type: in vivo, Echinochloa crus-galli; conditions: 250 g ai/ha, applied to paddy water, visual rating after 13 to 14 days, scale 0 to 100 (0 no effect, 100 complete control)
Method in brief: (§2)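 Plants at the 2-leaf stage were grown in pots flooded to 3 cm, and compound was applied directly into the paddy water, with depth kept throughout. After 13–14 days in a greenhouse, injury was rated visually against untreated controls on a 0–100 scale (100 = complete control); a dash means not tested.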

ducksalad = assay: Test D flooded paddy test; assay type: in vivo, Heteranthera limosa; conditions: 250 g ai/ha, applied to paddy water, visual rating after 13 to 14 days, scale 0 to 100 (0 no effect, 100 complete control)
Method in brief: as §2

rice = assay: Test D flooded paddy test; assay type: in vivo, Oryza sativa; conditions: 250 g ai/ha, applied to paddy water, visual rating after 13 to 14 days, scale 0 to 100 (0 no effect, 100 complete control)
Method in brief: as §2

sedge, umbrella = assay: Test D flooded paddy test; assay type: in vivo, Cyperus difformis; conditions: 250 g ai/ha, applied to paddy water, visual rating after 13 to 14 days, scale 0 to 100 (0 no effect, 100 complete control)
Method in brief: as §2

COC[C@H]1CN(C(=O)c2cc(-n3cnc(C(C)C)n3)ccc2C)c2cccc(Cl)c2O1 [Compound 313]
Barnyardgrass plant response rating (barnyardgrass [1]; 500 g ai/ha): 100 | Barnyardgrass plant response rating (barnyardgrass [1]; Test C, 125 g ai/ha): 80 | Blackgrass plant response rating (blackgrass [2]; 500 g ai/ha): 60 | Blackgrass plant response rating (blackgrass [2]; Test C, 125 g ai/ha): 50 | Corn plant response rating (corn [3]; 500 g ai/ha): 0 | Corn plant response rating (corn [3]; Test C, 125 g ai/ha): 0 | Foxtail, Green plant response rating (green foxtail [4]; 500 g ai/ha): 100 | Foxtail, Green plant response rating (green foxtail [4]; Test C, 125 g ai/ha): 100 | Kochia plant response rating (kochia [5]; 500 g ai/ha): 100 | Kochia plant response rating (kochia [5]; Test C, 125 g ai/ha): 80 | Oat, Wild plant response rating (oat, wild [6]; 500 g ai/ha): 90 | Oat, Wild plant response rating (oat, wild [6]; Test C, 125 g ai/ha): 90 | Pigweed, Palmer plant response rating (pigweed, palmer [7]; 500 g ai/ha): 100 | Pigweed, Palmer plant response rating (pigweed, palmer [7]; Test C, 125 g ai/ha): 100 | Ragweed plant response rating (ragweed [8]; 500 g ai/ha): 70 | Ragweed plant response rating (ragweed [8]; Test C, 125 g ai/ha): 0 | Ryegrass, Italian plant response rating (ryegrass, Italian [9]; 500 g ai/ha): 100 | Ryegrass, Italian plant response rating (ryegrass, Italian [9]; Test C, 125 g ai/ha): 80 | Soybean plant response rating (soybean [10]; 500 g ai/ha): 100 | Soybean plant response rating (soybean [10]; Test C, 125 g ai/ha): 40 | Wheat plant response rating (wheat [11]; 500 g ai/ha): 90 | Wheat plant response rating (wheat [11]; Test C, 125 g ai/ha): 20 | Plant response rating, Barnyardgrass (barnyardgrass [12]; 500 g ai/ha, postemergence): 70 | Plant response rating, Barnyardgrass (barnyardgrass [12]; Postemergence, 125 g ai/ha): 40 | Plant response rating, Blackgrass (blackgrass [13]; 500 g ai/ha, postemergence): 100 | Plant response rating, Blackgrass (blackgrass [13]; Postemergence, 125 g ai/ha): 70 | Plant response rating, Corn (corn [14]; 500 g ai/ha, postemergence): 90 | Plant response rating, Corn (corn [14]; Postemergence, 125 g ai/ha): 80 | Plant response rating, Foxtail, Green (green foxtail [15]; 500 g ai/ha, postemergence): 90 | Plant response rating, Foxtail, Green (green foxtail [15]; Postemergence, 125 g ai/ha): 40 | Plant response rating, Kochia (kochia [16]; 500 g ai/ha, postemergence): 90 | Plant response rating, Kochia (kochia [16]; Postemergence, 125 g ai/ha): 90 | Plant response rating, Oat, Wild (oat, wild [17]; 500 g ai/ha, postemergence): 60 | Plant response rating, Oat, Wild (oat, wild [17]; Postemergence, 125 g ai/ha): 20 | Plant response rating, Pigweed, Palmer (pigweed, palmer [18]; 500 g ai/ha, postemergence): 100 | Plant response rating, Pigweed, Palmer (pigweed, palmer [18]; Postemergence, 125 g ai/ha): 80 | Plant response rating, Ragweed (ragweed [19]; 500 g ai/ha, postemergence): 90 | Plant response rating, Ragweed (ragweed [19]; Postemergence, 125 g ai/ha): 60 | Plant response rating, Ryegrass, Italian (ryegrass, Italian [20]; 500 g ai/ha, postemergence): 90 | Plant response rating, Ryegrass, Italian (ryegrass, Italian [20]; Postemergence, 125 g ai/ha): 80 | Plant response rating, Soybean (soybean [21]; 500 g ai/ha, postemergence): 100 | Plant response rating, Soybean (soybean [21]; Postemergence, 125 g ai/ha): 100 | Plant response rating, Wheat (wheat [22]; 500 g ai/ha, postemergence): 50 | Plant response rating, Wheat (wheat [22]; Postemergence, 125 g ai/ha): 30 | Plant response rating, Galium (galium; 500 g ai/ha, postemergence): 100 | Plant response rating, Galium (galium; Postemergence, 125 g ai/ha): 100 | Plant response rating, Horseweed (horseweed; 500 g ai/ha, postemergence): 90 | Plant response rating, Horseweed (horseweed; Postemergence, 125 g ai/ha): 90 | Plant response rating, Barnyardgrass (Flood) (barnyardgrass [23]): 35 | Plant response rating, Ducksalad (Flood) (ducksalad): 65 | Plant response rating, Rice (Flood) (rice): 20 | Plant response rating, Sedge, Umbrella (Flood) (sedge, umbrella): 98
